Reference: ChEMBL document CHEMBL4507291 (2021)

Experiments:
[1] = target: Mitogen-activated protein kinase kinase kinase 6 (Homo sapiens) (UniProt O95382)
[2] = system: Tyrosine-protein kinase ABL1 (Homo sapiens), P00519 [F317I]
[3] = target: Non-receptor tyrosine-protein kinase TYK2 (Homo sapiens) (UniProt P29597)
[4] = target: BMP-2-inducible protein kinase (Homo sapiens) (UniProt Q9NSY1)
[5] = target: Serine/threonine-protein kinase PLK4 (Homo sapiens) (UniProt O00444)
[6] = target: Mitogen-activated protein kinase 4 (Homo sapiens) (UniProt P31152)
[7] = target: Tyrosine-protein kinase JAK2 (Homo sapiens) (UniProt O60674)
[8] = target: Cyclin-dependent kinase 13 (Homo sapiens) (UniProt Q14004)
[9] = target: Serine/threonine-protein kinase DCLK3 (Homo sapiens) (UniProt Q9C098)
[10] = target: T1, Serine/threonine-protein kinase DCLK2 (Homo sapiens) (UniProt Q8N568)
T1 sequence (whole entry): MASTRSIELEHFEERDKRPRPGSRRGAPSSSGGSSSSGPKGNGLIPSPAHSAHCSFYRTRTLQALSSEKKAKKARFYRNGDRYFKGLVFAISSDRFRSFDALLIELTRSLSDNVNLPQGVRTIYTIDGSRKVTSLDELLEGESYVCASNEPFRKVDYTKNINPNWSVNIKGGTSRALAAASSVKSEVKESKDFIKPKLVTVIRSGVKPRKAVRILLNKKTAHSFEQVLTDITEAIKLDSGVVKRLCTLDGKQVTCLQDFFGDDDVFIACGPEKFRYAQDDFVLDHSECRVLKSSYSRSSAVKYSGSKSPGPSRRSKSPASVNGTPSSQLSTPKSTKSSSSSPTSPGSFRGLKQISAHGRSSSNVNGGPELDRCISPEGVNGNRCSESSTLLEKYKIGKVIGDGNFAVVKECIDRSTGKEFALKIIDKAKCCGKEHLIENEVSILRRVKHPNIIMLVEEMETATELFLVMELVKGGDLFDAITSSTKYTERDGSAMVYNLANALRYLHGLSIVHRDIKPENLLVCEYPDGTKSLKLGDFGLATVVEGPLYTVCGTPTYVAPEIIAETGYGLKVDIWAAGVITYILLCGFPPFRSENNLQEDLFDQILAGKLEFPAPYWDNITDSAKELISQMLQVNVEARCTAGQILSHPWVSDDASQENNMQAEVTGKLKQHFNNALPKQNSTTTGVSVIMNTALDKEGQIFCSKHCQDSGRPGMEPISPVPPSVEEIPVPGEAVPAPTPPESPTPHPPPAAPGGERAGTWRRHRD

[11] = target: Vascular endothelial growth factor receptor 3 (Homo sapiens) (UniProt P35916)
[12] = target: Ribosomal protein S6 kinase alpha-6 (Homo sapiens) (UniProt Q9UK32)
[13] = target: Ribosomal protein S6 kinase alpha-6 (Homo sapiens) (UniProt Q9UK32); remark: listed apart in the source
[14] = target: Serine/threonine-protein kinase RIO3 (Homo sapiens) (UniProt O14730)
[15] = target: Serine/threonine-protein kinase pim-2 (Homo sapiens) (UniProt Q9P1W9)
[16] = target: MAP kinase-interacting serine/threonine-protein kinase 1 (Homo sapiens) (UniProt Q9BUB5)
[17] = target: Insulin receptor (Homo sapiens) (UniProt P06213)
[18] = target: Casein kinase I isoform alpha-like (Homo sapiens) (UniProt Q8N752)
[19] = target: Protein kinase C theta type (Homo sapiens) (UniProt Q04759)
[20] = target: T2, Alpha-2C adrenergic receptor (Homo sapiens) (UniProt P18825); conditions: Compound concentration 10.0 uM
T2 sequence (whole entry): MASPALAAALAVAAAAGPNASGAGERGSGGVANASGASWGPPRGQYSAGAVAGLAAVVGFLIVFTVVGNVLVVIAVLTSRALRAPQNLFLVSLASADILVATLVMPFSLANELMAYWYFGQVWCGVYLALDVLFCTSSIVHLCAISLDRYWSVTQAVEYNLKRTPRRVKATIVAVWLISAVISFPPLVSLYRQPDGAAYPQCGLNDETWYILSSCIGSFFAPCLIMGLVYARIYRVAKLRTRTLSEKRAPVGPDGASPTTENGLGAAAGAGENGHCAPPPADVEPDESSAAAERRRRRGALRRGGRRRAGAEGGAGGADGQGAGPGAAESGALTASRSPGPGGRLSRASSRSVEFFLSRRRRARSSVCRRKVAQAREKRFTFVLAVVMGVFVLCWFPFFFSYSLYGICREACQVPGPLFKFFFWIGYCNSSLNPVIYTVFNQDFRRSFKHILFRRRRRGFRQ

[21] = target: Ephrin type-A receptor 2 (Homo sapiens) (UniProt P29317)
[22] = Compound concentration 1000.0 nM
[23] = Compound concentration 100.0 nM

Chain of Ribosomal protein S6 kinase alpha-6 (Homo sapiens) (Q9UK32 whole entry): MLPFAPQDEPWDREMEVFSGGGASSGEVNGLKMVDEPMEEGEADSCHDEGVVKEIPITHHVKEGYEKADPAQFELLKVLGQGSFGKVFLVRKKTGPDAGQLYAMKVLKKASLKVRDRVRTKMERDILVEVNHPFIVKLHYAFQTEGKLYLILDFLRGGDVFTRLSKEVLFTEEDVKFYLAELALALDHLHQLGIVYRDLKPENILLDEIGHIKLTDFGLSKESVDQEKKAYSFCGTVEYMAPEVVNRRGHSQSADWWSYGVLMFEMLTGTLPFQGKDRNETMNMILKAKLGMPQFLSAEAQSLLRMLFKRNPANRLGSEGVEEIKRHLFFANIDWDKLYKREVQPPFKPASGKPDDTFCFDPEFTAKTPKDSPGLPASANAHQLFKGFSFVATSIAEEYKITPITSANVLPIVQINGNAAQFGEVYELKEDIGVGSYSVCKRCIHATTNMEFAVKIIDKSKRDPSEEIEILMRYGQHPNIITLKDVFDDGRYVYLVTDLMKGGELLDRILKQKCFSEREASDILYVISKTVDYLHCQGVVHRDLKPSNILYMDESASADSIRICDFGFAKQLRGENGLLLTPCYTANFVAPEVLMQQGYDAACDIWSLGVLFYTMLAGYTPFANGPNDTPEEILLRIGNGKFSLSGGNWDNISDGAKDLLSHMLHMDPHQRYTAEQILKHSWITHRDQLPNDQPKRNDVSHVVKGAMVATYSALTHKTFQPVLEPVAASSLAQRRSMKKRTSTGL
Chain of Tyrosine-protein kinase JAK2 (Homo sapiens) (O60674 whole entry): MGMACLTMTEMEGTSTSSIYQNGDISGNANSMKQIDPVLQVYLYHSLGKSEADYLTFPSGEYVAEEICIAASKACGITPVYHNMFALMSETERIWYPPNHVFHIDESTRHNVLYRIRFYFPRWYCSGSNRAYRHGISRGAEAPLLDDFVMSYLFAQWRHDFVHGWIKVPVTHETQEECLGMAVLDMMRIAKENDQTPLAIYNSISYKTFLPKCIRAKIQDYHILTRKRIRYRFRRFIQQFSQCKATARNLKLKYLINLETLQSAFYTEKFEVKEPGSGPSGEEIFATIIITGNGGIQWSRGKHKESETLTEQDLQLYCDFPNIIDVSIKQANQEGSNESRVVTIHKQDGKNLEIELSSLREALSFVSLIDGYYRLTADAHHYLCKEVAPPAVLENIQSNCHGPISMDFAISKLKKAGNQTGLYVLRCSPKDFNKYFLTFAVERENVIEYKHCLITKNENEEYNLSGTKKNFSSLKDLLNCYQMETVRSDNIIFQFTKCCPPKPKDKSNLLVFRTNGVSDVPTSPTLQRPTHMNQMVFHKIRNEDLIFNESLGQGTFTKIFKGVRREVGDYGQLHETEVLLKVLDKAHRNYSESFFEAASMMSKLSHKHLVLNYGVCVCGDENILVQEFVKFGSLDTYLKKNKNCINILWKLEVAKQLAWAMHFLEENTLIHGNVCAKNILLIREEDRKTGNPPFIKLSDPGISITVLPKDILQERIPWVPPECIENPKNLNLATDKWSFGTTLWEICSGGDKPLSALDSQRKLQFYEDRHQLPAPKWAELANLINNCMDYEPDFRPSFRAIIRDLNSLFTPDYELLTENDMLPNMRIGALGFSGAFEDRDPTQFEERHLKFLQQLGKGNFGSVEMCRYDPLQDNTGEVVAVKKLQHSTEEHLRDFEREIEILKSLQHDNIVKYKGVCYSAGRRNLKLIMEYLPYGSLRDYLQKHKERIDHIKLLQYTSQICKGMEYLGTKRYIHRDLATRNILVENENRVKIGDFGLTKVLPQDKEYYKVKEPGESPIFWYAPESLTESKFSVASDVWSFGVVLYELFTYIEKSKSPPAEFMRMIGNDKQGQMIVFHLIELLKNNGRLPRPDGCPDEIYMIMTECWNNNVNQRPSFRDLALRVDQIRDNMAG
Chain of MAP kinase-interacting serine/threonine-protein kinase 1 (Homo sapiens) (Q9BUB5 whole entry, looked up): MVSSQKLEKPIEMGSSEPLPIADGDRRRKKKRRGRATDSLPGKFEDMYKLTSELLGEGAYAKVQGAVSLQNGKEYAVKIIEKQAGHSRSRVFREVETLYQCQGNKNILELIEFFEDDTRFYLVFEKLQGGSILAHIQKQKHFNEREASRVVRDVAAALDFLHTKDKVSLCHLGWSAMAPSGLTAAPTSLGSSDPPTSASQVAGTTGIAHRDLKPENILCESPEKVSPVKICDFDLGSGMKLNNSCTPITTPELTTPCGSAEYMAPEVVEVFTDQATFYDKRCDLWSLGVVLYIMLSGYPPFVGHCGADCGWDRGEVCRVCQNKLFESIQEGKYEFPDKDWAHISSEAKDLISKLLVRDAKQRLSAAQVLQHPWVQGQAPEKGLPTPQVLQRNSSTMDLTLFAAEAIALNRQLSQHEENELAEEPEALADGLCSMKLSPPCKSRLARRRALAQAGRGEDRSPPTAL
Chain of Serine/threonine-protein kinase pim-2 (Homo sapiens) (Q9P1W9 whole entry, looked up): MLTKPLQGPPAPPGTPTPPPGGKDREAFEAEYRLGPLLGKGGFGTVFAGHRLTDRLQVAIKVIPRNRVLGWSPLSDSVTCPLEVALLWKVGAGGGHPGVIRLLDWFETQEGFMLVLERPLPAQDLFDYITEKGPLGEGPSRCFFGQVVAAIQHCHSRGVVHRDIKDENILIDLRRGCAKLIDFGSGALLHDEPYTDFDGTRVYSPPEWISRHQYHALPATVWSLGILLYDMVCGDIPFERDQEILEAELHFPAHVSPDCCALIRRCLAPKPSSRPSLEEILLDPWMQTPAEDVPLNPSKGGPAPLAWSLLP
Chain of Cyclin-dependent kinase 13 (Homo sapiens) (Q14004 whole entry, looked up): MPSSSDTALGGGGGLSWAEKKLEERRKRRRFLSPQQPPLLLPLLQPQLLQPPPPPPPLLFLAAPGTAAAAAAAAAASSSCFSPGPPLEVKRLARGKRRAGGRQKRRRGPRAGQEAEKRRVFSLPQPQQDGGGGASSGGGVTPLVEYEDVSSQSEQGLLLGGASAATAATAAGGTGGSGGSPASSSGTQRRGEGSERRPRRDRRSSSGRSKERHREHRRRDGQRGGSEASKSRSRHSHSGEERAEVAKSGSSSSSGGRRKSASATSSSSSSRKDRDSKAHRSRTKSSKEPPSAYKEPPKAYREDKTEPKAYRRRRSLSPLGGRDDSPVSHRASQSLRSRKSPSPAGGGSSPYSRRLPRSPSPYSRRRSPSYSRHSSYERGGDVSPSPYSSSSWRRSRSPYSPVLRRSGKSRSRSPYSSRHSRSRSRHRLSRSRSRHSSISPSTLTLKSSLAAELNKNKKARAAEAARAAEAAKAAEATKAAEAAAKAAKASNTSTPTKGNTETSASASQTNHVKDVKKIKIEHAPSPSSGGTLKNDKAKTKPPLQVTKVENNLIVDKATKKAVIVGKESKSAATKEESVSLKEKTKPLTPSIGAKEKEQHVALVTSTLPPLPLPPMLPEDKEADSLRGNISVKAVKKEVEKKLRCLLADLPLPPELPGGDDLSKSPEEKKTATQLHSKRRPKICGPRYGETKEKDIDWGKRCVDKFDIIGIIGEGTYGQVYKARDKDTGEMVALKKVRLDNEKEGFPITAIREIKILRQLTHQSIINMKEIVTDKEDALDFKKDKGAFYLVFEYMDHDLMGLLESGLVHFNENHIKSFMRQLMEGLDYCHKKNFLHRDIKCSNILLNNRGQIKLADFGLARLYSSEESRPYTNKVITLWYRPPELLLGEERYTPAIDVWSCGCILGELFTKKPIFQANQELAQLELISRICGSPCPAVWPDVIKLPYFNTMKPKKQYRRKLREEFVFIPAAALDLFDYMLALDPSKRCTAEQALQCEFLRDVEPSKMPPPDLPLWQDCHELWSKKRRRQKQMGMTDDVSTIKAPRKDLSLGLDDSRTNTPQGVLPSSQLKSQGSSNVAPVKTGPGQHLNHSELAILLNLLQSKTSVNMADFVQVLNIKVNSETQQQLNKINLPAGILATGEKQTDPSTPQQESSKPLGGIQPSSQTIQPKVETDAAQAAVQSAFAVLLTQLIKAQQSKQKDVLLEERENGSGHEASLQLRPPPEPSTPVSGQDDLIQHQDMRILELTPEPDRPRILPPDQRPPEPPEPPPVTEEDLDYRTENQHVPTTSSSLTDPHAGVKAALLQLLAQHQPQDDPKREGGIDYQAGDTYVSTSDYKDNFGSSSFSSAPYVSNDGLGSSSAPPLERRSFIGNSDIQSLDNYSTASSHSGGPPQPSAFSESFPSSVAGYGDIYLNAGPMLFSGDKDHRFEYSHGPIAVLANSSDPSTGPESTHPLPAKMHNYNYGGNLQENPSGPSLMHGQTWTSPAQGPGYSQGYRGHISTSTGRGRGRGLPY
Chain of Casein kinase I isoform alpha-like (Homo sapiens) (Q8N752 whole entry, canonical isoform): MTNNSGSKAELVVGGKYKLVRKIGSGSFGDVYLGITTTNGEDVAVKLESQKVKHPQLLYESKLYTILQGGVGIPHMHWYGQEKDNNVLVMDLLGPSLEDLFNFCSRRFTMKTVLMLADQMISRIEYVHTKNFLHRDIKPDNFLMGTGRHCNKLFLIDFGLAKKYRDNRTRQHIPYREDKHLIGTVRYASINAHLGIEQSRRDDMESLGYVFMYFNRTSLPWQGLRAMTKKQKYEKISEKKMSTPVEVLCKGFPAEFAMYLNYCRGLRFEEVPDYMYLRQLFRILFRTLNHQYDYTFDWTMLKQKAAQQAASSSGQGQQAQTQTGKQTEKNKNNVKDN
Chain of Serine/threonine-protein kinase RIO3 (Homo sapiens) (O14730 whole entry): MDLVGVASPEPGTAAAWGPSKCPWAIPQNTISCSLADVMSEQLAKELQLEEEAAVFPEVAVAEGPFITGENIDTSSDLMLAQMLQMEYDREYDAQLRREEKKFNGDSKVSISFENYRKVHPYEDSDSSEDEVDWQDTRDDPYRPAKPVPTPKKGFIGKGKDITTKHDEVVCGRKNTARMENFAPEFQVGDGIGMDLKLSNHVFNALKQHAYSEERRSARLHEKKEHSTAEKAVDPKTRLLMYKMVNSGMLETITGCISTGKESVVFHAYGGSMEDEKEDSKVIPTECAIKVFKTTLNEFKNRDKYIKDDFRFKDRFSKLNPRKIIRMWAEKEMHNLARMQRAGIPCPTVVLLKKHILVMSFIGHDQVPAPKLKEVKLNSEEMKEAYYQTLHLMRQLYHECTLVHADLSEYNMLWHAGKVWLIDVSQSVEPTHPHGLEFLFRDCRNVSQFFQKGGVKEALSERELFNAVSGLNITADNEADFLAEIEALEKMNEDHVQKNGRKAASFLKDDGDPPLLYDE

C[C@@H]1CN(c2cc(-c3nn(C)c4ccc(OC5(C)CC5)cc34)ncn2)C[C@H](C)O1 [MLi-2-NC]
inactive: residual activity [1, 22] 76% | residual activity [2, 22] 62% | residual activity [3, 22] 82% | residual activity [4, 22] 100% | residual activity [5, 22] 65% | residual activity [6, 22] 93% | residual activity [7, 22] 55% | residual activity [8, 22] 86% | residual activity [9, 22] 77% | residual activity [10, 22] 100% | residual activity [11, 22] 85% | residual activity [12, 22] 78% | residual activity [13, 22] 79% | residual activity [14, 22] 100% | residual activity [15, 22] 100% | residual activity [16, 22] 79% | residual activity [17, 22] 100% | residual activity [18, 22] 78% | residual activity [19, 22] 91% | inhibition [20] 15.1% | residual activity [21, 22] 100%

C[C@@H]1CN(c2cc(-c3n[nH]c4ccc(OC5(C)CC5)cc34)ncn2)C[C@H](C)O1 [MLi-2]
inactive: residual activity [1, 23] 59% | residual activity [2, 23] 74% | residual activity [3, 23] 76% | residual activity [4, 23] 100% | residual activity [5, 23] 71% | residual activity [6, 23] 83% | residual activity [7, 23] 77% | residual activity [8, 23] 84% | residual activity [9, 23] 92% | residual activity [10, 23] 89% | residual activity [11, 23] 100% | residual activity [12, 23] 77% | residual activity [13, 23] 85% | residual activity [14, 23] 100% | residual activity [15, 23] 88% | residual activity [16, 23] 67% | residual activity [17, 23] 100% | residual activity [18, 23] 100% | residual activity [19, 23] 74% | inhibition [20] 7.85% | residual activity [21, 23] 72%
